For orientation: EC50 means the midpoint of the concentration-response curve.

This note sets out measurements from publication PMC6804140, “Peptidomic Approach for the Identification of Peptides with Potential Antioxidant and Anti-Hyperthensive Effects Derived From Asparagus By-Products” (Molecules, 2019).

Ends that are not written are not given here.

The target in the assay is T1, ACE from rabbit lung (Oryctolagus cuniculus, UniProt P12822).
T1 construct: ACE from rabbit lung; purchased Sigma-Aldrich (St. Louis, MO, USA); host or cells: rabbit lung tissue
T1 sequence (P12822 34-1310): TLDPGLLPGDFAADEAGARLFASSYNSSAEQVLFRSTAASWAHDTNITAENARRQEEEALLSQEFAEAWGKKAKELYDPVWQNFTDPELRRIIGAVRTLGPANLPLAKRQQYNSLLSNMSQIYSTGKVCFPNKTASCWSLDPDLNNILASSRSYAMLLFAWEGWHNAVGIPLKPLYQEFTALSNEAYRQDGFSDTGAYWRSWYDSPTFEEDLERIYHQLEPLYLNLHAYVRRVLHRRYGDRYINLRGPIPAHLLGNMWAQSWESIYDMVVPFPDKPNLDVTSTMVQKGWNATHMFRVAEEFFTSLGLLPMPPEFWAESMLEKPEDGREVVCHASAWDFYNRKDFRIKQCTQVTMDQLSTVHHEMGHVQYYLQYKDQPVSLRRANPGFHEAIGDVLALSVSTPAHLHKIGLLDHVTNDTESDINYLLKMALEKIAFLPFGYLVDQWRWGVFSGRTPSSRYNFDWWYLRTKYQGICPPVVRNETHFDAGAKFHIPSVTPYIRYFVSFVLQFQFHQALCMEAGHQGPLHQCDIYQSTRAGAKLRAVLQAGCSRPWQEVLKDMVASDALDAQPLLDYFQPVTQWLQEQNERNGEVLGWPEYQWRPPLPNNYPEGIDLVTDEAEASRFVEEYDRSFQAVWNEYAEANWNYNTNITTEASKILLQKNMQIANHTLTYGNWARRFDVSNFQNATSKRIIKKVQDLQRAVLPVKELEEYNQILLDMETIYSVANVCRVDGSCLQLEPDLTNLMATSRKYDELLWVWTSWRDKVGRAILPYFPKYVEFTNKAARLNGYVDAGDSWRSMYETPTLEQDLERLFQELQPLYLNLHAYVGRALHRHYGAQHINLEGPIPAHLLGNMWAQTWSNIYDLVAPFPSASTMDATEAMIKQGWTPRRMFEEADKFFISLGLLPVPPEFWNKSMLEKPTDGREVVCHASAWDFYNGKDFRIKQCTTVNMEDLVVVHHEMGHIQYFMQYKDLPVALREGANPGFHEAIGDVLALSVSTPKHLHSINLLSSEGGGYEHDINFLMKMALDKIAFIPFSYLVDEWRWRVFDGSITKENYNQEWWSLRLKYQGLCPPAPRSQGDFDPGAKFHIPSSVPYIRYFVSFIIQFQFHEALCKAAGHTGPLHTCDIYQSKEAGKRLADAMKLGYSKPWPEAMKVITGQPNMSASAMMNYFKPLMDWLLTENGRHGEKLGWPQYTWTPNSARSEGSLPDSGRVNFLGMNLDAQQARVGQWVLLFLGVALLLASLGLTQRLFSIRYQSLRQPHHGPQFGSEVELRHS
Kind of assay: ACE-inhibitory assay. Format: biochemical. To be noted: synthetic peptide (90%); pH 8.3, 37 °C, 90 min, 228 nm; fit Origin 9.0; ± SD in Table 1; read-out: EC50 value, ACE inhibition assay.

Turning to PDWFLLL [PDWFLLL], the 50% effective concentration (EC50) is 5.74 ± 2.35 µM.
The same measure for ASQSIWLPGWL [ASQSIWLPGWL]: 4.02 ± 1.79 µM.
